System: rats
Assay: Administration to rats p.o. for 4 days, toxicological effects
Format: in vivo
Conditions: doses of up to 300 mg/kg p.o for 4 days
Excerpt: The compounds of the invention are essentially non toxic at therapeutically active doses.

CC(C)C[C@@H]1C(=O)N[C@H](C2Cc3ccccc3C2)C(=O)N1[C@@H](C(=O)N(C)C)c1ccc(F)cc1F [Example 10, (2R)-2-(2,4-difluorophenyl)-2-[(3R,6R)-3-(2,3-dihydro-1H-inden-2-yl)-6-isobutyl-2,5-dioxopiperazin-1-yl]-N,N-dimethylethanamide]
adverse toxicological effects: no adverse toxicological effects were observed

From patent US8541579B2, “Substituted diketopiperazines as oxytocin antagonists” (Glaxo Group Limited, priority 2001, dated 2013)
